Source: EP2790511B1 (Merck Sharp & Dohme Corp., priority 2011, dated 2013)
Where two headings read alike, the source gives them in different places.

Columns and labels:
hROMK (hKir1.1) = target: T1, hROMK (hKir1.1) (Homo sapiens, UniProt P48048); experiment: Thallium Flux Assay; format: cell-based
T1 construct: expressed in transfected cells
T1 sequence (P48048 1-391): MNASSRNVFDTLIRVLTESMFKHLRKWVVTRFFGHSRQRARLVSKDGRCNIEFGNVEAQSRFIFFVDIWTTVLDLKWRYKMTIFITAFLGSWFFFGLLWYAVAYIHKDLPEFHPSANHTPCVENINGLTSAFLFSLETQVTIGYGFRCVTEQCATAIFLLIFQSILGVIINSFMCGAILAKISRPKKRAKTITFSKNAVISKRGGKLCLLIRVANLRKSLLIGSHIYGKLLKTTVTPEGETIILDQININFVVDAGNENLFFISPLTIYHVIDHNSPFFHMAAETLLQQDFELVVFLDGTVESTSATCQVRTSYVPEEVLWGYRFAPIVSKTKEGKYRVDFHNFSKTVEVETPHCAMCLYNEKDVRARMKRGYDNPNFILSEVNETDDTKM
Outline: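 HEK293 cells stably expressing hROMK, loaded with FluxOR dye 90 min at ambient temperature, then compound 30 min with 0.3 mM ouabain in probenecid buffer pH 7.4.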

Kir1.1 (ROMK1) = target: T2, Kir1.1 (ROMK1) (Homo sapiens, UniProt P48048); experiment: Electrophysiology Assay (whole cell voltage clamp, IonWorks Quattro)
T2 sequence (P48048 1-391): T1 sequence (P48048 1-391)
Protocol: Chinese hamster ovary cells stably expressing Kir1.1 channels were maintained in T-75 flasks in cell culture media in a humidified 10% CO2 incubator at 37 °C. Prior to an experiment, Kir1.1 expression was induced by overnight incubation with 1 mM sodium butyrate. […] After centrifugation, the cell pellet was resuspended in approximately 4.0 mL of bath solution and placed in the IonWorks instrument. The intracellular solution consisted of (in mM): 80 K gluconate, 40 KCl, 20 KF, 3.2 MgCl2, 3 EGTA, 5 Hepes, pH 7.4. Electrical access to the cytoplasm was achieved by perforation in 0.13 mg/mL amphotericin B for 4 min. […] Voltage protocols and current recordings were performed using the IonWorks HT software/hardware system. Currents were sampled at 1 kHz. No correction for liquid junction potentials was used. The test pulse, consisting of a 100 ms step to 0 mV from a holding potential of -70 mV, followed by a 100 ms voltage ramp from -70 mV to +70 mV, was applied before and after a 6 min compound incubation period. Test compounds were prepared by diluting DMSO stock solutions into the bath solution at 3x the final concentration and placed in the instrument in 96-well polypropylene plates. Current amplitudes were measured using the IonWorks software.

[1] = HEK293 cells stably expressing hROMK (hKir1.1), FLIPR-Tetra, read-out: Thallium Flux IC50

SMILES | IC50 (hROMK (hKir1.1); [1]) | IC50 (Kir1.1 (ROMK1)) | IC50 (hROMK (hKir1.1); Thallium Flux IC50)
Cc1c([C@@H]2CN3CCN(C(=O)Cc4ccc(-n5cnnn5)cn4)C[C@H]3CO2)ccc(F)c1C#N [Example 2, 3-((3R,9aS)-8-(2-(5-(1H-tetrazol-1-yl)pyridin-2-yl)acetyl)octahydropyrazino[2,1-c][1,4]oxazin-3-yl)-6-fluoro-2-methylbenzonitrile] | 120 nM | 70 nM | 
Cc1c([C@H]2CN3CCN(C(=O)Cc4ccc(-n5cnnn5)cn4)C[C@H]3CO2)ccc(F)c1C#N [Example 3, 3-((3S,9aS)-8-(2-(5-(1H-tetrazol-1-yl)pyridin-2-yl)acetyl)octahydropyrazino[2,1-c][1,4]oxazin-3-yl)-6-fluoro-2-methylbenzonitrile] | 90 nM | 100 nM | 
Cc1c([C@H]2CN3CCN(C(=O)Cc4ccc(-n5cnnn5)nc4)C[C@H]3CO2)ccc(F)c1C#N [Example 4, 6-fluoro-2-methyl-3-[(3S,9aS)-8-{[6-(1H-tetrazol-1-yl)pyridin-3-yl]acetyl}octahydropyrazino[2,1-c][1,4]oxazin-3-yl]benzonitrile] |  | 40 nM | 70 nM
Cc1c([C@H]2CN3CCN(C(=O)Cc4cnc(-n5cnnn5)nc4)C[C@H]3CO2)ccc(F)c1C#N [Example 6, 6-fluoro-2-methyl-3[(3S,9aS)-8-{[2-(1H-tetrazol-1-yl)pyrimidin-5-yl]acetyl}octahydropyrazino[2,1-c][1,4]oxazin-3-yl]benzonitrile] |  | 40 nM | 100 nM
Cc1c([C@H]2CN3CCN(C(=O)Cc4ccc(-n5cnnn5)nc4)C[C@@H]3CO2)ccc(F)c1C#N [Example 7, 6-fluoro-2-methyl-3-[(3S,9aR)-8-{[6-(1H-tetrazol-1-yl)pvridin-3-yl]acetyl}octahydropyrazino[2,1-c][1,4]oxazin-3-yl]benzonitrile] |  | 70 nM | 
Cc1c([C@@H]2CN3CCN(C(=O)Cc4ccc(-n5cnnn5)nc4)C[C@@H]3CO2)ccc(F)c1C#N [Example 8, 6-fluoro-2-methyl-3-[(3R,9aR)-8-{[6-(1H-tetrazol-1-yl)pyridin-3-yl]acetyl}octahydropyrazino[2,1-c][1,4]oxazin-3-yl]benzonitrile] |  | 40 nM | 
Cc1c([C@@H]2CN3CCN(C(=O)Cc4cnc(-n5cnnn5)nc4)C[C@@H]3CO2)ccc(F)c1C#N [Example 13, 6-fluoro-2-methyl-3-[(3R,9aR)-8-{[2-(1H-tetrazol-1-yl)pyrimidin-5-yl]acetyl}octahydropyrazino[2,1-c][1,4]oxazin-3-yl]benzonitrile] |  | 30 nM | 110 nM
N#Cc1cc([C@@H]2CN3CCN(C(=O)Cc4ccc(-n5cnnn5)nc4)C[C@H]3CO2)ccc1F [Example 37, 2-fluoro-5-[(3R,9aS)-8-{[6-(1H-tetrazol-1-yl)pyridin-3-yl]acetyl}octahydropyrazino[2,1-c][1,4]oxazin-3-yl]benzonitrile] |  | 20 nM | 
N#Cc1cc([C@@H]2CN3CCN(C(=O)Cc4ccc(-n5cnnn5)cn4)C[C@H]3CO2)ccc1F [Example 38, 2-fluoro-5-[(3R,9aS)-8-{[5-(1H-tetrazol-1-yl)pyridin-2-yl]acetyl}octahydropyrazino[2,1-c][1,4]oxazin-3-yl]benzonitrile] |  | 120 nM | 
COc1ccc([C@@H]2CN3CCN(C(=O)Cc4ccc(-n5cnnn5)nc4)C[C@H]3CO2)c(C)c1C#N [Example 50] | 80 nM | 130 nM | 
COc1cc(F)c([C@@H]2CN3CCN(C(=O)Cc4ccc(-n5cnnn5)nc4)C[C@H]3CO2)cc1C#N [Example 57, 4-fluoro-2-methoxy-5-[(3R,9aS)-8-{[6-(1H-tetrazol-1-vl)pvridin-3-yl]acetyl}octahydropyrazino[2,1-c][1,4]oxazin-3-yl]benzonitrile] | 210 nM | 190 nM | 
COc1c([C@H]2CN3CCN(C(=O)Cc4ccc(-n5cnnn5)nc4)C[C@H]3CO2)ccc(F)c1C#N [Example 61, 6-fluoro-2-methoxy-3-[(3S,9aS)-8-{[6-(1H-tetrazol-1-vl)pvridin-3-yl]acetyl}octahydropyrazino[2,1-c][1,4]oxazin-3-yl]benzonitrile] | 130 nM | 70 nM | 
Cc1nc(-n2cnnn2)ncc1CC(=O)N1CCN2C[C@H](c3ccc(F)c(C#N)c3C)OC[C@@H]2C1 [Example 121, 6-fluoro-2-methyl-3-[(3S,9aS)-8-{[4-methyl-2-(1H-tetrazol-1-yl)pyrimidin-5-yl]acetyl}octahydropyrazino[2,1-c][1,4]oxazin-3-yl]benzonitrile] |  | 90 nM | 120 nM
Cc1c([C@H]2CN3CCN(C(=O)Cc4ccc(-n5cnnn5)nc4)C[C@H]3CN2)ccc(F)c1C#N [Example 192, 6-fluoro-2-methyl-3-[(3S,9aR)-8-{[6-(1H-tetrazol-1-yl)pyridin-3-yl]acetyl}octahydro-2H-pyrazino[1,2-a]pyrazin-3-yl]benzonitrile] |  |  | 70 nM
Cc1c([C@@H]2CN3CCN(C(=O)Cc4cnc(-n5cnnn5)nc4)C[C@H]3CN2)ccc(F)c1C#N [Example 193, 6-fluoro-2-methyl-3-[(3R,9aR)-8-{[2-(1H-tetrazol-1-yl)pyrimidin-5-yl]acetyl}octahydro-2H-pyrazino[1,2-a]pyrazin-3-yl]benzonitrile] |  |  | 100 nM
Cc1c([C@@H]2CN3CCN(C(=O)Cc4ccc(-n5cnnn5)nc4)C[C@H]3CN2)ccc(F)c1C#N [Example 194, 6-fluoro-2-methyl-3-[(3R,9aR)-8-{[6-(1H-tetrazol-1-yl)pyridin-3-yl]acetyl}octahydro-2H-pyrazino[1,2-a]pyrazin-3-yl]benzonitrile] | 60 nM | 60 nM | 
Cc1c([C@@H]2CN3CCN(C(=O)Cc4ccc(-n5cnnn5)cn4)C[C@H]3CN2)ccc(F)c1C#N [Example 195, 6-fluoro-2-methyl-3-[(3R,9aR)-8-{[5-(1H-tetrazol-1-yl)pyridin-2-yl]acetyl}octahydro-2H-pyrazino[1,2-a]pyrazin-3-yl]benzonitrile] | 250 nM |  | 
C[C@@H]1Cc2cc([C@@H]3CN4CCN(C(=O)Cc5ccc(-n6cnnn6)nc5)C[C@H]4CN3)ccc2C(=O)O1 [Example 196, (3R)-3-methyl-6-[(3R,9aR)-8-{[6-(1H-tetrazol-1-yl)pyridin-3-yl]acetyl}octahydro-2H-pyrazino[1,2-a]pyrazin-3-yl]-3,4-dihydro-1H-isochromen-1-one] | 230 nM |  | 
N#Cc1cc([C@@H]2CN3CCN(C(=O)Cc4cnc(-n5cnnn5)nc4)C[C@H]3CN2)ccc1F [Example 197, 2-fluoro-5-[(3R,9aR)-8-{[2-(1H-tetrazol-1-yl)pyrimidin-5-yl]acetyl}octahydro-2H-pyrazino[1,2-a]pyrazin-3-yl]benzonitrile] | 240 nM |  | 
Cc1c([C@@H]2CN3CCN(C(=O)Nc4ccc(-n5cnnn5)nc4)C[C@H]3CO2)ccc(F)c1C#N [Example 198, (3R,9aS)-3-(3-cyano-4-fluoro-2-methylphenyl)-N-[6-(1H-tetrazol-1-yl)pyridin-3-yl]hexahydropyrazino[2,1-c][1,4]oxazine-8(1H)-carboxamide] | 160 nM |  | 
Cc1c([C@@H]2CN3CCN(C(=O)Nc4ccc(-n5cnnn5)nc4)C[C@@H]3CO2)ccc(F)c1C#N [Example 199, (3R,9aR)-3-(3-cyano-4-fluoro-2-methylphenyl)-N-[6-(1H-tetrazol-1-yl)pyridin-3-yl]hexahydropyrazino[2,1-c][1,4]oxazine-8(1H)-carboxamide] | 140 nM |  | 
Cc1c([C@@H]2CN3CCN(C(=O)Nc4ccc(-n5cnnn5)cn4)C[C@@H]3CO2)ccc(F)c1C#N [Example 200, (3R,9aR)-3-(3-cyano-4-fluoro-2-methylphenyl)-N-[5-(1H-tetrazol-1-yl)pyridin-2-yl]hexahydropyrazino[2,1-c][1,4]oxazine-8(1H)-carboxamide] | 250 nM |  | 
Cc1c([C@@H]2CN3CCN(C(=O)Nc4ccc(-n5cnnn5)cn4)C[C@H]3CO2)ccc(F)c1C#N [Example 201, (3R,9aS)-3-(3-cyano-4-fluoro-2-methylphenyl)-N-[5-(1H-tetrazol-1-yl)pyridin-2-yl]hexahydropyrazino[2,1-c][1,4]oxazine-8(1H)-carboxamide] | 320 nM |  | 
